What was measured:
Test in all cases: relative viability (nuclei count vs DMSO), 5 days (fraction); higher = more cells survive
MIM1 = compound: CC1=CSC(=NC2CCCCC2)N1/N=C/C3=C(C(=C(C=C3)O)O)O [MIM1]
Method in brief: (§1)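 Lung cancer cell lines in 1536-well plates were kept overnight at 37 °C, then pinned with five library-drug doses (not always all listed) spaced by √10 on vehicle-anchored plates. After 5 days without medium change, cells were fixed, permeabilised and Hoechst-stained in one step, imaged at 4×, and nuclei were counted with MetaXpress. Viability is treated-well nuclei divided by vehicle-well nuclei, taken as the median over plates. Plates passed only with control CV below 25% and at least one doubling.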

Luminespib = compound: CCNC(=O)c1noc(-c2cc(C(C)C)c(O)cc2O)c1-c1ccc(CN2CCOCC2)cc1 [Luminespib]
Method in brief: as §1

Saracatinib = compound: CN1CCN(CCOc2cc(OC3CCOCC3)c3c(Nc4c(Cl)ccc5c4OCO5)ncnc3c2)CC1 [Saracatinib]
Method in brief: as §1

Nilotinib = compound: Cc1cn(-c2cc(NC(=O)c3ccc(C)c(Nc4nccc(-c5cccnc5)n4)c3)cc(C(F)(F)F)c2)cn1 [Nilotinib]
Method in brief: as §1

Lenalidomide = compound: Nc1cccc2c1CN(C1CCC(=O)NC1=O)C2=O [Lenalidomide]
Method in brief: as §1

Cell Line	relative viability (MIM1; 0.2 µM)	relative viability (MIM1; 0.6325 µM)	relative viability (MIM1; 2 µM)	relative viability (MIM1; 6.325 µM)	relative viability (MIM1; 20 µM)	relative viability (Luminespib; 0.002 µM)	relative viability (Luminespib; 0.006325 µM)	relative viability (Luminespib; 0.01 µM, anchor plate)	relative viability (Luminespib; 0.02 µM)	relative viability (Luminespib; 0.06325 µM)	relative viability (Luminespib; 0.2 µM)	relative viability (Saracatinib; 0.02 µM)	relative viability (Saracatinib; 0.6325 µM)	relative viability (Saracatinib; 2 µM)	relative viability (Nilotinib; 0.001 µM)	relative viability (Nilotinib; 0.01 µM)	relative viability (Nilotinib; 0.03162 µM)	relative viability (Nilotinib; 0.1 µM)	relative viability (Lenalidomide; 0.253 µM)	relative viability (Lenalidomide; 0.8 µM)	relative viability (Lenalidomide; 2.53 µM)	relative viability (Lenalidomide; 8 µM)	relative viability (Saracatinib; 0.2 µM)	relative viability (Nilotinib; 0.003162 µM)
NCI-H520	1.02	1.01	1.01	0.859	0.383	1.05	1.02	0.235	0.547	0.163	0.157	1.01	0.897	0.494	0.86	1.21	0.896	0.949	0.918	0.917	1.14	0.784	–	–
NCI-H522	1.13	0.893	0.865	0.859	0.607	0.945	0.935	1.16	0.73	0.617	0.391	0.917	0.907	0.732	–	0.996	0.89	0.722	0.896	0.816	1.07	0.886	0.705	0.974
NCI-H596	1.11	1.19	0.88	0.939	0.685	1.06	0.901	1.09	0.684	0.919	0.921	1.12	0.906	0.815	0.939	1.05	0.771	0.848	0.906	0.704	1.09	0.723	0.817	0.982
NCI-H647	0.933	0.951	0.51	0.821	0.3	0.953	0.935	0.174	0.674	0.0941	0.092	0.967	0.858	0.572	0.889	1.35	0.729	0.878	0.993	0.753	1.16	0.904	0.868	1.17
NCI-H650	1.05	0.756	0.917	0.856	0.382	0.95	0.843	0.812	0.692	0.538	0.124	1.12	0.965	0.926	0.908	0.805	0.658	0.654	1.03	–	1.21	0.845	0.863	0.811
NCI-H661	0.991	1.01	0.941	0.746	0.406	1.01	0.969	0.916	0.778	0.754	0.325	1.02	0.926	0.669	0.951	1.09	0.949	0.948	0.917	0.934	1.03	0.958	0.977	1.06
NCI-H727	0.833	0.823	0.878	0.723	0.452	0.95	0.738	0.369	0.64	0.308	0.287	0.874	0.863	0.612	0.787	0.938	0.694	0.614	0.868	0.927	0.908	0.857	0.765	–

— the supplement of paper PMC10307832
